From patent US11819021B2, “Peptides and methods and uses thereof for modulating anaphase promoting complex (APC) activity” (University of Saskatchewan, priority 2017, dated 2023)
“Also recorded” adds a separate entry of the source.

Experiments:
[1] = tested on: APC mutant (apc5 temperature sensitive mutant and/or apc10Δ mutant); assay: Viability/growth of APC mutant yeast cells; assay type: cell-based
Procedure: (§1) A. apc5^CA cells expressing small peptides were assayed for replicative life span (RLS). B. Cells expressing HTZ1 were grown under stress conditions. HTZ1 expression, even at low levels, suppresses apc5^CA and apc10Δ defects. The cells shown were transformed with either an empty vector or GAL inducible HTZ1. On 2% glucose, the construct is weakly expressed, and this is enough to increase growth of APC mutants at 30° C.
Examples of yeast cells with defective anaphase promoting complex (APC) function include apc5 and apc10 mutants. An example of an apc5 mutant is the apc5 temperature sensitive mutant described herein. An example of an apc10 mutant is the apc10 deletion mutant described herein.
(§2) The reverse genetic screen utilized a yeast 2-hybrid (Y2H) protocol that selected for peptides that bound to the APC subunits Apc5 or Apc10 (see FIG. 5 for APC structure), to assess whether peptide-binding might modify APC function. Peptides that bound APC subunits were then assayed for those that suppressed APC mutant defects.
(§3) Over 100 peptides that bound either Apc5 or Apc10 were recovered from millions screened. Six peptides that reproducibly interacted with the Apc10 bait construct in Y2H assays were examined further. Vectors expressing these 6 peptides were transformed into APC mutant cells and assessed for ts growth.

[2] = molecular target: T1, Apc10 (Saccharomyces cerevisiae, UniProt P53068); assay: Yeast 2-hybrid (Y2H) binding of peptide prey to Apc10 bait; settings: galactose-inducible Trx-scaffold peptide prey
T1 construct: expressed in transfected cells; host or cells: yeast Y2H cells
T1 sequence (P53068 1-250): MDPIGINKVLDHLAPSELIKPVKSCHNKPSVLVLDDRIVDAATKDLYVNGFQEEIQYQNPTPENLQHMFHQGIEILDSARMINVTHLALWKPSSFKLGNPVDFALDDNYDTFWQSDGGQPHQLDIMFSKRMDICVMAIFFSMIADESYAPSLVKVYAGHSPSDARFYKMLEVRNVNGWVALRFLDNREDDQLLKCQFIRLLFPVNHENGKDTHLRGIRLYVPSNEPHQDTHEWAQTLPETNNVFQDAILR
Procedure: as §2
A library of random small peptides were cloned into a Thioredoxin (Trx) scaffold (see FIG. 6 for Trx-aptamer structure) and expressed from a galactose-inducible Y2H prey vector in cells expressing the Apc10 bait vector (the modified Apc10 is still part of the complete APC complex). Six peptides that reproducibly interacted with the Apc10 bait construct in Y2H assays were identified (FIG. 1A) and were examined further.
(§4) Random small peptides were cloned into the TrxA scaffold (library provided by R. Geyer, U of S) and expressed from a galactose-inducible Y2H prey vector in cells harboring either APC5 or APC10 Y2H bait vectors (APC5/APC10 bait constructs complement APC mutant defects).
as §3

[3] = tested on: APC; assay: Yeast 2-hybrid binding to the APC
Description: As used herein, the expression “binds to the APC” refers to a peptide that binds to at least one subunit of the APC, for example Apc5 or Apc10. Binding can be measured for example, by any method known in the art, including, but not limited to a yeast 2-hybrid assay.
as §2, §4

[4] = tested on: apc5^CA temperature sensitive mutant; assay: Forward genetic screen: rescue of apc5^CA temperature sensitive growth; assay type: cell-based, yeast
Description: Using a forward genetic screen to test whether temperature sensitive (ts) APC mutants expressing random small peptides could grow at restrictive temperatures, millions of small peptides were rapidly screened for those that could restore mutant APC phenotypes. Peptides that rescued the apc5^CA ts (temperature sensitive) defect were recovered including peptides Y65 and Y36.
In the forward screens, with galactose-inducible TrxA-based peptide libraries, in cells harboring the apc5^CA ts allele, over 200 peptides (from millions screened) suppressed the ts phenotype. Several recovered plasmids were sequenced.

[5] = tested on: wild type (WT) yeast cells; assay: Spot dilution growth and stress resistance of wild type yeast cells expressing peptides; assay type: cell-based
Procedure: (§5) A. apc5^CA (temperature sensitive allele) cells were transformed with C43-4, C2-4B or an empty vector. Cells grown overnight in 2% Glu were struck onto 2% Glucose plates and used for the yeast replicative lifespan (RLS) assay. B. Wild type (WT) cells transformed with C43-4, C2-4B or an empty vector were grown to stationary phase in 2% Glu media, then after 2 days spot diluted onto 2% Glu or 2% Gal to induce expression of the aptamers.
The cells were exposed to 5 sec of UV from a UV box prior to incubation. The plus signs define growth compared to the empty vector control.
(§6) The six peptide expressing vectors were transformed into apc10Δ cells and assessed for temperature sensitive growth. Two of the peptides, C43-4 and C2-4B, suppressed the apc10Δ growth phenotype at 30 and 34° C. (FIG. 1B-D). […] However, C43-4 and C2-4B increased replicative and chronological lifespan in both apc5^CA and WT cells, respectively (FIG. 2A). […] H2O2 induces oxidative stress whereas galactose induces a carbon stress.
These cells were spot diluted on Trp-plates and grown at the temperatures shown and/or exposed to ultraviolet (UV) irradiation (FIG. 11). At low level expression on glucose, some of the mutations caused stress dependent phenotypes.
Methods • 1. Cells were cultured overnight in Trp-2% glucose media • 2. The growth of the cells was determined by measuring the optical density (OD) of the cells at 600 nm (OD600) • 3. Cells were diluted to OD600 of 1 with fresh culture media • 4. 100 ul of each culture was pipetted into a well of a 96 well plate • 5. 10 ul of the each starting culture was pipetted into 90 ul of water in 4 additional wells to make a 10-fold serial spot dilution • 6. 5 ul from each serial dilution was spotted onto plates containing standard growth media with either 2% glucose or 2% galactose using a multi-pipettor • 7. The plates were exposed to UV • 8. The plates were then placed at room temperature, 30, 34 or 37° C. for 3-7 days • 9. The plates were scanned and saved as tiff files

[6] = tested on: WT cells; assay: Chronological lifespan of WT yeast cells; assay type: cell-based
Procedure: as §5, §6

[7] = tested on: apc10Δ cells; assay: Spot dilution growth of apc10Δ cells expressing peptides; assay type: cell-based, yeast
Description: A. Y2H cells expressing the APC subunit bait and the galactose inducible Apc10 peptide prey grown on glucose or galactose. Cells co-expressing the Apc5 or Apc10-bait and Apc10 aptamer-prey vectors were spotted onto the appropriate media, in the presence or absence of galactose (the aptamers are Gal inducible), to confirm 2-hybrid interactions. Growth on trp-his-media ensures both plasmids are maintained. A 2-hybrid interaction will drive expression of the ADE2 gene, allowing growth on ade-media. B. Aptamers that bind Apc10 can suppress APC mutant phenotypes. Spot dilutions of apc10Δ cells expressing an empty vector control or the one of 6 Apc10 aptamers tested. Log phase cells were 10-fold serially diluted and spotted onto plates containing either 2% glucose or 2% galactose. The plates were then incubated at 30° C. (permissive temperature) and 34° C. (restrictive stress). C. Peptides identified as binding to the yeast Apc10 APC subunit using the yeast 2-hybrid screen increase growth of cells on stress conditions. A series of APC binding peptides were transformed into wild type yeast cells, spot diluted, and grown at 30° C. on media supplemented with the normal carbon source (2% glucose). Alternatively, cells were grown on media supplemented with 2% galactose to induce a carbon stress. D. Peptides were expressed in apc5^ts temperature sensitive cells and grown on glucose or galactose media at 30° C.
The cells were exposed to 5 sec of UV from a UV box prior to incubation.
The six peptide expressing vectors were transformed into apc10Δ cells and assessed for temperature sensitive growth. Two of the peptides, C43-4 and C2-4B, suppressed the apc10Δ growth phenotype at 30 and 34° C. (FIG. 1B-D). […]
Over 100 peptides that bound either Apc5 or Apc10 were recovered from millions screened. […] Vectors expressing these 6 peptides were transformed into APC mutant cells and assessed for ts growth.
Methods • 1. […] The growth of the cells was determined by measuring the optical density (OD) of the cells at 600 nm (OD600) • 3. […]

[8] = tested on: apc5^CA cells; assay: Yeast replicative lifespan (RLS) assay; assay type: cell-based
Procedure: as §5, §1

[9] = molecular target: T2, Apc5 (Saccharomyces cerevisiae, UniProt Q08683); assay: Yeast 2-hybrid (Y2H) binding of peptide prey to Apc5 bait; settings: galactose-inducible Trx-scaffold peptide prey
T2 construct: expressed in transfected cells; host or cells: yeast Y2H cells
T2 sequence (Q08683 1-685): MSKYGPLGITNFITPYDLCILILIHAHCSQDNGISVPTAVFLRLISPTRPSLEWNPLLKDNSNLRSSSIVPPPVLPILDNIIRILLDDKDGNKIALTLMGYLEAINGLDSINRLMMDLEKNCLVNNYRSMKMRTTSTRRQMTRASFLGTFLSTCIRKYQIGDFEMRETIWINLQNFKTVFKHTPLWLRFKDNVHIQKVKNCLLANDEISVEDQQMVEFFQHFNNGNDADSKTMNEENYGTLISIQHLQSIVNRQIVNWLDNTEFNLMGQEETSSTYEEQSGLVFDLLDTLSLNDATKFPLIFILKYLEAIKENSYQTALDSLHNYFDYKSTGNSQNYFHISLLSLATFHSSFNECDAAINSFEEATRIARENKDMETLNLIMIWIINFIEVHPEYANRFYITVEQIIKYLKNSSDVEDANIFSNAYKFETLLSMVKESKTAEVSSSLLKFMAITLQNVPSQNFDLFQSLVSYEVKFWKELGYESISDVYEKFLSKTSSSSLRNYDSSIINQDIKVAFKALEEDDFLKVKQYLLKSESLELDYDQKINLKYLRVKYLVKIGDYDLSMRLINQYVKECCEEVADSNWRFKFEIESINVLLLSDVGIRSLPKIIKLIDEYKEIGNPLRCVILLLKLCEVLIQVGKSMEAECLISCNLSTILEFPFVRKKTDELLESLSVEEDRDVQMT
Procedure: as §2, §4, §3

[10] = tested on: yeast proteins; assay: Yeast 2-hybrid assay for proteins interacting with the peptides; assay type: binding

Sequence	Viability of an APC mutant [1]	Binds Apc10 in a yeast 2 hybrid assay [2]	Binds Apc5 in a yeast 2 hybrid assay [9]	Proteins identified as interacting in a yeast 2 hybrid assay [10]	also measured
GRMLMTYLMYFMVLWVPRPWGPPL [1-8]	increases the viability	Binds Apc10			Binds Apc10 in a yeast 2 hybrid assay ([2]; listed as SEQ ID NO: 8): binds Apc10
SWLNGSGGVVLWLFSNFCCG [Y36]					Binding to the APC in a yeast 2HY assay [3]: not bind the APC in a yeast 2HY; apc5^CA temperature sensitive (ts) growth / viability of an apc5 temperature sensitive mutant [4]: increases the viability; also recorded: rescued; also recorded: Rescues apc5^CA temperature
RMPQWWQWMWV [C2-4B, Peptide aptamer with homology to yeast protein Sum1]	increases the viability		Binds Apc5		Log phase growth of wild type (WT) cells ([5]; 30° C.): Neither C43-4 nor C2-4B influenced; Stress resistance when overexpressed in WT yeast cells ([5]; overexpressed, H2O2 oxidative stress, galactose carbon stress): increased stress resistance; Chronological lifespan [6]: increased; apc10Δ growth phenotype ([7]; 30 and 34° C.): suppressed; Replicative lifespan [8]: increased; Binds Apc5 in a yeast 2 hybrid assay ([9]; listed as 02-4B): binds Apc5
RRCLSIRTENLAWEGKFLRV [50-1]	increases the viability	Binds Apc10		Identified as interacting with Pxa1,; also recorded: Rrp12, and Hfm1 in a yeast 2-	Binds Apc10 in a yeast 2 hybrid assay ([2]; listed as SEQ ID NO: 9): binds Apc10
NGSSHNDARVRRLTLISRLC (Artificial Sequene) [C43-4-3, Version of C43-4 where the leucine residue at position 8 is replaced with alanine]		binds Apc10			Resistance to UV stress compared to C43-4 cells ([5]; FIG. 11, UV treated, for example at room temperature): increased resistance to UV stress; Growth compared to C43-4 cells ([5]; FIG. 11, for example at room temperature): increased growth; Stress resistance at low level expression ([5]; WT cells on glucose, temperature and/or UV stress, versus empty vector): increased stress resistance further; Toxicity in apc10Δ cells ([7]; glucose or galactose media, 5 sec UV (FIG. 13)): remained toxic
SKWTWRMCMSWTVDRFAPVPWP [24-1]	increases the viability		Binds Apc5		Binds Apc5 in a yeast 2 hybrid assay ([9]; listed as SEQ ID NO: 7): binds Apc5
PSYNTIKYHETHGGRHPRRQPKRPI [3-1]	increases the viability	Binds Apc10		Identified as interacting with Sld5,; also recorded: Hms2, Gnt1 and Vnx1 in a yeast	Binds Apc10 in a yeast 2 hybrid assay ([2]; listed as SEQ ID NO. 5): binds Apc10
GALKEVCICIVESVGGEVFSGP [compound 4]	increases the viability		Binds Apc5	Identified as interacting with Hxt2,; also recorded: Mad2, Ubc7, Rpp2, Kap122, Sfa1,; also recorded: Oac1 and Vps13 in a yeast 2-	Binds Apc5 in a yeast 2 hybrid assay ([9]; listed as SEQ ID NO. 6): binds Apc5
CECLETETFHPITRHLIVPV [9-5]	increases the viability		Binds Apc5	Interacts with Die2, Tim44, Yrm1	Binds Apc5 in a yeast 2 hybrid assay ([9]; listed as SEQ ID NO. 3): binds Apc5
